From PubChem BioAssay (NCI)
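Compound exposure: 48 hours, 5 concentrations, 96-well plates. GI50 marks 50% less growth. TGI: total growth inhibition.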

How the values were obtained:
Assay in all cases: NCI tumour cell line growth inhibition, 48 h
[1] = system: CAKI-1 renal
[2] = system: NCI-H522 lung
[3] = system: HCT-116 colon
[4] = system: MALME-3M melanoma
[5] = system: SNB-75 CNS
[6] = system: NCI-H23 lung
[7] = system: SF-539 CNS
[8] = system: RXF 393 renal
[9] = system: HL-60(TB) leukemia
[10] = system: A498 renal

Structure (SMILES)	TGI [1] [µM]	TGI [2] [µM]	TGI [3] [µM]	TGI [4] [µM]	TGI [5] [µM]	TGI [6] [µM]	TGI [7] [µM]	TGI [8] [µM]	TGI [9] [µM]	TGI [10] [µM]	GI50 [1] [µM]	GI50 [2] [µM]	GI50 [3] [µM]	GI50 [5] [µM]	GI50 [10] [µM]	GI50 [7] [µM]	GI50 [4] [µM]	GI50 [6] [µM]	GI50 [8] [µM]	GI50 [9] [µM]
Cc1ccc(C)c(N2C(=O)C(=O)c3c(C)ccc(C)c32)c1	87.1	38.6	32	96.5	> 100	70	36.4	> 100	> 100	–	–	–	–	–	–	–	–	–	–	–
CCCCCCCCCCCCCC(=O)OC1C(CO)OC(=O)C1O (stereo not drawn)	> 100	–	> 100	> 100	> 100	> 100	> 100	> 100	> 100	> 100	–	–	–	–	–	–	–	–	–	–
CO[C@]12CCC(=O)N1C=Cc1c2[nH]c2ccccc12	> 100	–	> 100	> 100	> 100	> 100	> 100	> 100	> 100	> 100	–	–	–	–	–	–	–	–	–	–
COc1cc(C2C(C(=O)OCc3ccccc3)=C(C)NC(C)=C2C(=O)OCc2ccccc2)cc(OC)c1OC	> 100	> 100	> 100	–	> 100	–	> 100	–	–	> 100	3.05	3.57	2.54	4.69	1.75	3.99	–	–	–	–
CC1=C2[C@@H](c3ccccc3)C3C=CC2(c2ccccc23)N(C(=O)Nc2cccc3ccccc23)C1=O (stereo partly drawn)	> 100	–	> 100	> 100	–	> 100	> 100	–	> 100	> 100	–	–	–	–	–	–	–	–	–	–
CCc1cccc(CC)c1NC(=O)c1ccn2c1CCc1cnc(Nc3ccc(N4CCN(C)CC4)cc3OC)nc1-2	–	4.32	–	3.8	7.47	27	3.19	3.08	–	23.5	–	1.81	–	1.87	10.9	1.1	1.87	4.48	1.58	–
Cc1cn2c(/C=N/N=C(N)N)c(-c3cc(Cl)sc3Cl)nc2s1	26	–	–	–	–	1.66	–	–	–	–	6.18	–	–	–	–	–	–	0.904	–	–
Cc1csc(-c2ccc3c(c2)COC3(CCCN(C)C)c2ccc(F)cc2)c1 (stereo not drawn)	3.01	4.31	3.54	3.34	2.61	3.44	3.22	3.04	4.27	–	1.62	2.06	1.86	1.2	–	1.8	1.74	1.83	1.63	1.97
CN/N=C(/CC(=O)c1sc(-n2nc(-c3ccccc3)cc2-c2ccccc2)nc1C)C(=O)Nc1ccc(Cl)c(Cl)c1	> 100	> 100	> 100	> 100	–	> 100	> 100	> 100	–	> 100	–	–	–	–	–	–	–	–	–	–
CC(C)N(C(=O)C12C3C4C5C3C1(C#N)C5C42)C(C)C (stereo not drawn)	> 100	> 100	> 100	> 100	> 100	> 100	> 100	–	> 100	> 100	–	–	–	–	–	–	–	–	–	–
Cc1ccc(S(=O)(=O)NC(=O)C#CCOC2CCCCO2)cc1 (stereo not drawn)	> 100	–	> 100	> 100	> 100	> 100	> 100	> 100	> 100	> 100	–	–	–	–	–	–	–	–	–	–
